Test results reported in US20250100993A1, “2-SUBSTITUTED THIAZOLE HSD17B13 INHIBITORS AND USES THEREOF” (Inipharm, Inc., priority 2022, published 2025).
pKi: −log10 of the molar value.

Tests used:
Format in all cases: biochemical
HSD17B2 = HSD17B2 (Homo sapiens (Human), UniProt P37059); test: HSD17B2 activity via detection of NADH product (NAD-Glo luminescence); conditions: selectivity for HSD17B13 over HSD17B2
Procedure: The fluorescence based detection assay monitors the conversion of the co-factor NAD^+ to NADH, which occurs coincident with the conversion of estradiol to estrone by HSD17B2. These assays were performed in 384 well plates (Greiner V-shape PP-microplate). The 20 μl reaction volume contained: 0.7 μM estradiol (E2); 6 mM NAD^+ (Sigma); 250 nM HSD17B2 enzyme (Origene; Cat #TP303293); 0.25 M potassium phosphate buffer pH 7.4, 0.75% vehicle (DMSO). Reactions were incubated for 2 hours at 37° C., and the reaction was stopped by freezing the reaction plates at −80° C. Zero time samples were frozen immediately.
The conversion of NAD^+ to NADH was quantitated using NAD-Glo kits (Promega; Cat #G9062) according to the manufacturers' instructions. A volume of 15 μL of enzyme reaction mixture was added to 15 μL of reconstituted Glo reagent, and the plates were incubated for 30 minutes at room temperature. Luminescence was quantitated on a Tecan Spark Reader®. A standard curve of NADH ([…]) in potassium phosphate buffer pH 7.4/1% DMSO was run on each plate.
Activity of the enzyme in the absence of E2 was used to evaluate specificity of conversion. Enzyme activity in the presence of test samples was expressed as a percentage of the uninhibited enzyme in the presence of 1% DMSO vehicle only, and was plotted versus inhibitor concentration. Non-linear regression was performed using a four-parameter logistic model and GraphPad Prism software. All assessments were undertaken in duplicate evaluations.

HSD17B14 = HSD17B14 (Homo sapiens (Human), UniProt Q9BPX1); test: LC/MS estrone detection assay for HSD17B14 activity (estradiol to estrone); conditions: selectivity for HSD17B13 over HSD17B14
Chain of HSD17B14 (Q9BPX1 whole entry): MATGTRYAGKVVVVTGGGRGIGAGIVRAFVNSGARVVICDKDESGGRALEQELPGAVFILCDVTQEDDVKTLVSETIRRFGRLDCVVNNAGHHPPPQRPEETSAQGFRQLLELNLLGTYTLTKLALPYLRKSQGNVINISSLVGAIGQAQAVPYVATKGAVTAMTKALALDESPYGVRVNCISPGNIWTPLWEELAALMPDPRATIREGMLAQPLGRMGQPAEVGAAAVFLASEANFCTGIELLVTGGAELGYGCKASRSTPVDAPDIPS
Procedure: The liquid chromatography/mass spectrometry (LC/MS) estrone detection assay monitors the conversion of estradiol to estrone by HSD17B14. This assay was undertaken in a 96 well plates (Eppendorf deep well), in an 80 μl reaction volume containing: 8 μM of estradiol (E2; Cayman); 4 mM NAD+(Sigma); 120 nM HSD17B14 enzyme (in-house E. coli expressed His-tagged, purified, soluble protein); 1M potassium phosphate buffer pH 7.4, and 1.2% vehicle (DMSO). Reactions were incubated for 2 hours at 37° C. Estradiol (E2) conversion to estrone (E1) was quantitated by LC-MS/MS based analyte detection for E1 using LCMS grade reagents.
Reactions were terminated by the addition of two volumes of acetonitrile (MeCN; LCMS grade) containing deuterated (D4)-E1 used as internal standard (Clear Synth; 500 ng/mL final concentration). Samples were applied to pre-prepared Bond Elut-C18 extraction cartridges (3 mL; Agilent). The cartridges were washed with 1.5 mL water followed by 1.5 mL 5% aqueous methanol, and dried for 5 minutes under vacuum. They were then eluted with 4.5 mL MeCN. The eluates were dried under nitrogen and re-suspended in 200 μL of 60% methanol (LCMS grade) before submission for analysis. Standard curves of E2 and E1 in 4% DMSO were included for quantification.
Analysis of samples was performed on a XBridge BEH C18 column (Waters) using 0.1% Diethyl Amine in MeCN (mobile phase A) and 0.1% Diethyl Amine in milli-Q water (mobile phase B) in a 3 min gradient from 0-25% B. Analytes were detected in negative mode using MRM analysis, with E2 having a RT of 1.89 min and E1 having a RT of 2.07 min. Activity of the enzyme in the absence of NAD+ was used to evaluate specificity of conversion. Enzyme activity in the presence of test samples was expressed as a percentage of the uninhibited enzyme in the presence of 1.2% DMSO vehicle only, and plotted versus inhibitor concentration. Non-linear regression was performed using a four-parameter logistic model and GraphPad Prism software. All assessments were undertaken in duplicate evaluations, which were pooled during the extraction process and subsequently injected as duplicates for LC-MS/MS analysis.

HSD17B13 = HSD17B13 (Homo sapiens (Human), UniProt Q7Z5P4); test: LC/MS estrone detection assay for HSD17B13 activity (estradiol to estrone); conditions: estradiol substrate, LCMS; read-out: HSD17B13 Inhibition_Estradiol Substrate_LCMS: Ki
Chain of HSD17B13 (Q7Z5P4 20-300): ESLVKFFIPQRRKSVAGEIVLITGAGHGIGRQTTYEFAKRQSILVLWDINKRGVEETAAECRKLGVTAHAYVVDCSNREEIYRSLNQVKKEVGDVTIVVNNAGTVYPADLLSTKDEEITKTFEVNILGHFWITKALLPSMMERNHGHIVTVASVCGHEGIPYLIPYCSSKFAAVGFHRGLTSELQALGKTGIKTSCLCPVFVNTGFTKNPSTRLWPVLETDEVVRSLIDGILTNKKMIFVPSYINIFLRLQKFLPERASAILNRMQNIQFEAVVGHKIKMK
Summary of the method: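 His-tagged E. coli-expressed enzyme (30 nM) with 4 μM estradiol and 6 mM NAD+ in potassium phosphate pH 7.4, 0.5% DMSO, 2 h at 26.5° C. Estrone formation quantified by LC-MS/MS against D4-estrone standard; activity as % of uninhibited, four-parameter fit, duplicates.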

Chain of HSD17B2 (P37059 whole entry): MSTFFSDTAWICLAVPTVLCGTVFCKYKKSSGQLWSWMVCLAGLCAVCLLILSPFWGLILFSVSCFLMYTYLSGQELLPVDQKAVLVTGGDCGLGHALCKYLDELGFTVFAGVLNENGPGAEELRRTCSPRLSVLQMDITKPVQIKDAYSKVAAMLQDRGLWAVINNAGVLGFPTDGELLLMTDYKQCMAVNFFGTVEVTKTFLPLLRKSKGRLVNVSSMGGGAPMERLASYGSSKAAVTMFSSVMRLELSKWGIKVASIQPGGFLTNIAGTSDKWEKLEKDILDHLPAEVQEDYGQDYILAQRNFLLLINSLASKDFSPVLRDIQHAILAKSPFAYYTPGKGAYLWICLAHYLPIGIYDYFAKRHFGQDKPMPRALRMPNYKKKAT

HSD17B2 fold selectivity (HSD17B2) | HSD17B14 fold selectivity (HSD17B14) | pKi (HSD17B13) | Compound
64 fold | >397 fold | ≥ 7.30 | O=C(Nc1sc(-c2cccnc2)nc1C(=O)NCc1ccccc1C(F)(F)F)c1cc(Cl)c(O)c(Cl)c1 [Example 61]
192 fold |  | ≥ 7.30 | O=C(Nc1sc(-c2ccccc2F)nc1C(=O)NCc1ccccc1C(F)(F)F)c1cc(Cl)c(O)c(Cl)c1 [Example 63]
115 fold | >855 fold | ≥ 7.30 | O=C(Nc1sc(-c2ccccc2F)nc1C(=O)NCc1ccccc1C(F)(F)F)c1cc(F)c(O)c(Cl)c1 [Example 64]
225 fold |  | ≥ 7.30 | O=C(Nc1sc(-c2ccccc2Cl)nc1C(=O)NCc1ccccc1C(F)(F)F)c1cc(Cl)c(O)c(Cl)c1 [Example 65]
36 fold |  | 7.00 to 7.30 | Cn1cc(-c2nc(C(=O)NCc3ccccc3C(F)(F)F)c(NC(=O)c3cc(Cl)c(O)c(Cl)n3)s2)cn1 [Example 66]
513 fold |  | ≥ 7.30 | O=C(Nc1sc(-c2ccccc2Cl)nc1C(=O)NCc1ccccc1C(F)(F)F)c1cc(Cl)c(O)c(Cl)n1 [Example 67]
48 fold |  | 7.00 to 7.30 | O=C(Nc1sc(-c2cncnc2)nc1C(=O)NCc1ccccc1C(F)(F)F)c1cc(Cl)c(O)c(Cl)n1 [Example 68]
107 fold |  | ≥ 7.30 | O=C(Nc1sc(-c2ccncc2)nc1C(=O)NCc1ccccc1C(F)(F)F)c1cc(Cl)c(O)c(Cl)n1 [Example 70]
175 fold | >646 fold | ≥ 7.30 | CS(=O)(=O)c1ccc(-c2nc(C(=O)NCc3ccccc3C(F)(F)F)c(NC(=O)c3cc(Cl)c(O)c(Cl)n3)s2)cc1 [Example 73]
10 fold | >180 fold | 7.00 to 7.30 | O=C(Nc1sc(N2CCS(=O)(=O)CC2)nc1C(=O)NCc1ccccc1C(F)(F)F)c1cc(Cl)c(O)c(Cl)n1 [Example 78, 5-(4,6-dichloro-5-hydroxypicolinamido)-2-(1,1-dioxidothiomorpholino)-N-(2-(trifluoromethyl)benzyl)thiazole-4-carboxamide]
53 fold |  | ≥ 7.30 | O=C(Nc1sc(C2=CCCCC2)nc1C(=O)NCc1ccccc1C(F)(F)F)c1cc(Cl)c(O)c(Cl)n1 [Example 88]
107 fold | >797 fold | ≥ 7.30 | O=C(Nc1sc(-c2cncc(F)c2)nc1C(=O)NCc1ccccc1C(F)(F)F)c1cc(F)c(O)c(Cl)c1 [Example 90]
24 fold | 76 fold | 7.00 to 7.30 | CS(=O)(=O)c1ccccc1-c1nc(C(=O)NCc2ccccc2C(F)(F)F)c(NC(=O)c2cc(Cl)c(O)c(Cl)c2)s1 [Example 91]
44 fold | >215 fold | 7.00 to 7.30 | CS(=O)(=O)c1ccccc1-c1nc(C(=O)NCc2ccccc2C(F)(F)F)c(NC(=O)c2cc(Cl)c(O)c(Cl)n2)s1 [Example 92]
1270 fold | >1250 fold | ≥ 7.30 | CN(C)Cc1ccc(F)c(-c2nc(C(=O)NCc3ccccc3C(F)(F)F)c(NC(=O)c3cc(F)c(O)c(Cl)c3)s2)c1 [Example 94]
2150 fold | >1640 fold | ≥ 7.30 | N#Cc1cccc(-c2nc(C(=O)NCc3ccccc3C(F)(F)F)c(NC(=O)c3cc(Cl)c(O)c(Cl)c3)s2)c1 [Example 95]
985 fold | >2000 fold | ≥ 7.30 | N#Cc1cccc(-c2nc(C(=O)NCc3ccccc3C(F)(F)F)c(NC(=O)c3cc(F)c(O)c(Cl)c3)s2)c1 [Example 96]
444 fold | 357 fold | ≥ 7.30 | CS(=O)(=O)c1ccc(-c2nc(C(=O)NCc3ccccc3C(F)(F)F)c(NC(=O)c3cc(Cl)c(O)c(Cl)c3)s2)cc1 [Example 104]
